Measurements reported in patent publication US5159069A, “Sulfated tannins and their salts” (Yamanouchi Pharmaceutical Co., Ltd., priority 1988, dated 1992).

Assays:
[1] = test system: HTLV-IIIB-infected MT-4 cells; assay: Inhibitory effect of drugs on HIV-induced cell damage (trypan blue dye exclusion); format: cell-based
Protocol: In this experiment, there were used human MT4 cells, a human T4-positive cell line carrying adult T-cell leukemia causative virus, HTLV-1 (Gann Monogr.,1982, Vol. 28, pp. 219 -228) and HTLF-IIIB which is one of the HIV strains.
(§1) HTLV-IIIB-infected MT-4 cells were inoculated on RPMI 1640 culture mediums containing 10% heat-inactivated fetal calf serum, 100 IU/ml of penicillin and 100 μg/ml of streptomycin, to which tannic acid-S had been added in a variety of concentrations, in a cell number of 300,000/ml and were cultured at 37° C. in a carbon dioxide incubator. After the cultivation for three days, one half of the culture medium was withdrawn and the survival rate and the viable count (X 10^4 /ml) of the MT-4 cells in the medium were determined by a trypan blue dye exclusion test. To the remaining cultured cells, an equivalent amount of RPMI 1640 culture medium each containing the same amount of the drugs were added, the cultivation was further continued for additional 3 days and likewise the survival rate and the viable count were determined.

[2] = test system: HTLV-IIIB-non-infected MT-4 cells; assay: Toxicity: influence on the proliferation of T cells; format: cell-based, human
Protocol: as §1
As in Experiment 1, there was observed the influence of the compounds (drugs) of the present invention on the proliferation of HTLV-IIIB-non-infected MT-4 cells. The results thus observed are listed on the following Tables XI to XIV. The numerical values in these Tables mean viable count (X 10^4 /ml) and those in parentheses mean survival rates.

[3] = test system: MOLT-4 and MOLT-4/HIV HTLV-IIIB cells; assay: Inhibitory effect on giant cell formation by mixed cultivation of MOLT-4 and MOLT-4/HIV HTLV-IIIB cells; format: cell-based, human; conditions: 24 hours co-culture, co-culture control 18.5%
Protocol: This experiment was performed by the recently developed method of Yamamoto et al. (see Yamamoto et al., Virology, 1988, 164, p. 542; and J. Clinical Microbiology, 1988, 26, p. 1229).
MOLT-4 cells which are HTLV-I negative human T cell strain, and MOLT-4/HIVHT LV II IB cells which are persistently HIV-infected cells are separately cultured in a RPMI 1640 culture medium supplemented with 10% fetal calf serum to a cell density of 5×10^5 /ml respectively, these were mixed in a ratio of 1:1 and the drug was added thereto.
The mixed culture medium was cultured at 37° C. for 24 hours in a carbon dioxide incubator and the distribution of cell size was determined by a Cell Multisizer (available from Coulter Electronics, Ltd., Luton, England).
In Table IX, the rate of cell having a size of not less than 20 μm is expressed by "%". If MOLT-4 cells and MOLT-4/HIVHT LV II IB cells are separately cultured, the rates are 4.5 and 3.3% respectively, but it increased up to 18.5% when they are co-cultured. When tannic acid-S was added to the mixed culture medium in a concentration of 5 μg/ml, the rate was reduced to 8.2%.

[4] = Stability of powder and aqueous solution; conditions: powder state and aqueous solution
[5] = test system: HTLV-IIIB-infected MT-4 cells; assay: Inhibitory effect on expression of HIV-specific antigen (immunofluorescence); format: cell-based
Protocol: After drying the cells cultured in Experiment 1 on a slide glass, they were fixed with methanol for 3 minutes and treated with human anti-HIV-III positive serum (IF antibody titer×4096) which was diluted 1/1,000 time at 37° C. for 30 minutes. Thereafter, it was washed with phosphate-buffered saline (PBS) for 15 minutes and treated with an anti-human IgG conjugated with fluorescein-isothiocyanate at 37° C. for 30 minutes. It was again washed with PBS and then the number of fluorescent cells, more specifically expressed HIV-specific virus antigen proteins were determined with a fluorescence microscope. "%" is a ratio of the number of fluorescent ray emitting cells to the number of total cells.

[6] = drug 50 μg/ml, culture period 3 days
[7] = drug 50 μg/ml, culture period 6 days
[8] = drug 100 μg/ml, culture period 3 days
[9] = drug 100 μg/ml, culture period 6 days
[10] = drug 200 μg/ml, culture period 3 days
[11] = drug 200 μg/ml, culture period 6 days
[12] = drug 400 μg/ml, culture period 3 days
[13] = drug 400 μg/ml, culture period 6 days

## sodium salt of sulfated (-)-epigallocathechin-3-gallate [Epigallocatechin gallate-S]
[1]; [6]
  Viable count: 830000 mL⁻¹
  survival rate: 85%
[1]; [7]
  Viable count: 1.3e+06 mL⁻¹
  survival rate: 92%
[1]; [8]
  Viable count: 840000 mL⁻¹
  survival rate: 83%
[1]; [9]
  Viable count: 1.25e+06 mL⁻¹
  survival rate: 95%
[1]; [10]
  Viable count: 810000 mL⁻¹
  survival rate: 89%
[1]; [11]
  Viable count: 750000 mL⁻¹
  survival rate: 87%
[1]; [12]
  Viable count: 720000 mL⁻¹
  survival rate: 82%
[1]; [13]
  Viable count: 500000 mL⁻¹
  survival rate: 86%
[2]; [6]
  Viable count: 1.06e+06 mL⁻¹
  survival rate: 88
[2]; [7]
  Viable count: 400000 mL⁻¹
  survival rate: 92
[2]; [8]
  Viable count: 1.14e+06 mL⁻¹
  survival rate: 85
[2]; [9]
  Viable count: 370000 mL⁻¹
  survival rate: 91
[2]; [10]
  Viable count: 900000 mL⁻¹
  survival rate: 91
[2]; [11]
  Viable count: 950000 mL⁻¹
  survival rate: 92
[2]; [12]
  Viable count: 960000 mL⁻¹
  survival rate: 89
[2]; [13]
  Viable count: 530000 mL⁻¹
  survival rate: 95
[3]; drug 25 μg/ml
  Rate of Giant Cell (cells of size not less than 20 μm): 13.8%
[3]; drug 50 μg/ml
  Rate of Giant Cell (cells of size not less than 20 μm): 17.5%
[3]; drug 100 μg/ml
  Rate of Giant Cell (cells of size not less than 20 μm): 5.6%
[3]; drug 200 μg/ml
  Rate of Giant Cell (cells of size not less than 20 μm): 0.4%
[4]
  Stability: stable in powder state and in the form of aqueous solutions
[5]; [6]
  Ratio of fluorescent ray emitting cells to total cells: < 1%
[5]; [7]
  Ratio of fluorescent ray emitting cells to total cells: < 1%
[5]; [8]
  Ratio of fluorescent ray emitting cells to total cells: < 1%
[5]; [9]
  Ratio of fluorescent ray emitting cells to total cells: < 1%
[5]; [10]
  Ratio of fluorescent ray emitting cells to total cells: < 1%
[5]; [11]
  Ratio of fluorescent ray emitting cells to total cells: < 1%
[5]; [12]
  Ratio of fluorescent ray emitting cells to total cells: < 1%
[5]; [13]
  Ratio of fluorescent ray emitting cells to total cells: < 1%
